Laboratory results as given in ChEMBL document CHEMBL5724914, “Linking interpersonal differences in gut microbiota composition and drug biotransformation activity” (2024).

Experiments:
[1] = (§1) The drug is tested on Z-025 corresponding to rabbit gut metagenome with ENA study accession number: PRJEB37062 and ENA sample accession number: ERS12561824 for biotransformation under anaerobic condition. The drug concentrations were measured over 9 timepoints collected between 0 and 24 hours of incubation by liquid-chromatography-coupled mass spectrometry (LC–MS); conditions: 2 µM
[2] = as §1, with “Z-024” for “Z-025”, “pig” for “rabbit”, “ERS12561823” for “ERS12561824”; conditions: 2 µM
[3] = as §1, with “Z-021” for “Z-025”, “to” for “to rabbit gut”, “ERS12561820” for “ERS12561824”; conditions: 2 µM
[4] = as §1, with “Z-018” for “Z-025”, “pig” for “rabbit”, “ERS12561817” for “ERS12561824”; conditions: 2 µM
[5] = as §1, with “Z-007” for “Z-025”, “rat” for “rabbit”, “ERS12561807” for “ERS12561824”; conditions: 2 µM
[6] = as §1, with “Z-003” for “Z-025”, “pig” for “rabbit”, “ERS12561803” for “ERS12561824”; conditions: 2 µM
[7] = as §1, with “Z-001” for “Z-025”, “mouse” for “rabbit”, “ERS12561801” for “ERS12561824”; conditions: 2 µM
[8] = as §1, with “WLS-350” for “Z-025”, “human” for “rabbit”, “ERS12561789” for “ERS12561824”; conditions: 2 µM
[9] = as §1, with “WLS-310” for “Z-025”, “human” for “rabbit”, “ERS12561785” for “ERS12561824”; conditions: 2 µM
[10] = as §1, with “WLS-220” for “Z-025”, “human” for “rabbit”, “ERS12561769” for “ERS12561824”; conditions: 2 µM
[11] = as §1, with “WLS-006” for “Z-025”, “human” for “rabbit”, “ERS12561741” for “ERS12561824”; conditions: 2 µM
[12] = human gut metagenome, 24 h, 2 µM
[13] = human gut metagenome, 24 h, 2 µM; remark: listed apart in the source
[14] = human gut metagenome, 24 h, 2 µM; remark: listed apart in the source
[15] = human gut metagenome, 24 h, 2 µM; remark: listed apart in the source
[16] = human gut metagenome, 24 h, 2 µM; remark: listed apart in the source
[17] = human gut metagenome, 24 h, 2 µM; remark: listed apart in the source
[18] = human gut metagenome, 24 h, 2 µM; remark: listed apart in the source
[19] = human gut metagenome, 24 h, 2 µM; remark: listed apart in the source
[20] = human gut metagenome, 24 h, 2 µM; remark: listed apart in the source
Note: call rule not given here.

| Structure (SMILES) | Bacterial Biotransformation [1] | Bacterial Biotransformation [2] | Bacterial Biotransformation [3] | Bacterial Biotransformation [4] | Bacterial Biotransformation [5] | Bacterial Biotransformation [6] | Bacterial Biotransformation [7] | Bacterial Biotransformation [8] | Bacterial Biotransformation [9] | Bacterial Biotransformation [10] | Bacterial Biotransformation [11] | Bacterial Biotransformation [12] | Bacterial Biotransformation [13] | Bacterial Biotransformation [14] | Bacterial Biotransformation [15] | Bacterial Biotransformation [16] | Bacterial Biotransformation [17] | Bacterial Biotransformation [18] | Bacterial Biotransformation [19] | Bacterial Biotransformation [20] |
| --- | --- | --- | --- | --- | --- | --- | --- | --- | --- | --- | --- | --- | --- | --- | --- | --- | --- | --- | --- | --- |
| COc1ccc(Cc2nccc3cc(OC)c(OC)cc23)cc1OC [PAPAVERINE] | Compound metabolized | Compound metabolized | Compound metabolized | Compound metabolized | Compound NOT metabolized | Compound metabolized | Compound metabolized | Compound metabolized | Compound metabolized | Compound metabolized | Compound NOT metabolized | Compound metabolized | Compound NOT metabolized | Compound NOT metabolized | Compound metabolized | Compound metabolized | Compound metabolized | Compound NOT metabolized | Compound metabolized | Compound metabolized |
| CC(=O)CCCCn1c(=O)c2c(ncn2C)n(C)c1=O [PENTOXIFYLLINE] | Compound NOT metabolized | Compound NOT metabolized | Compound NOT metabolized | Compound NOT metabolized | Compound NOT metabolized | Compound NOT metabolized | Compound NOT metabolized | Compound NOT metabolized | Compound NOT metabolized | Compound NOT metabolized | Compound NOT metabolized | Compound NOT metabolized | Compound NOT metabolized | Compound NOT metabolized | Compound NOT metabolized | Compound NOT metabolized | Compound metabolized | Compound NOT metabolized | Compound metabolized | Compound metabolized |
| CCCN1C[C@H](CSC)C[C@@H]2c3cccc4[nH]cc(c34)C[C@H]21.CS(=O)(=O)O [PERGOLIDE MESYLATE] | Compound metabolized | Compound NOT metabolized | Compound metabolized | Compound NOT metabolized | Compound NOT metabolized | Compound NOT metabolized | Compound NOT metabolized | Compound NOT metabolized | Compound NOT metabolized | Compound NOT metabolized | Compound NOT metabolized | Compound NOT metabolized | Compound NOT metabolized | Compound NOT metabolized | Compound NOT metabolized | Compound NOT metabolized | Compound NOT metabolized | Compound NOT metabolized | Compound NOT metabolized | Compound NOT metabolized |
| O=C(NC(Cc1cc(=O)[nH]c2ccccc12)C(=O)O)c1ccc(Cl)cc1 (stereo not given) [REBAMIPIDE] | Compound NOT metabolized | Compound metabolized | Compound metabolized | Compound NOT metabolized | Compound NOT metabolized | Compound NOT metabolized | Compound NOT metabolized | Compound NOT metabolized | Compound NOT metabolized | Compound NOT metabolized | Compound NOT metabolized | Compound metabolized | Compound NOT metabolized | Compound metabolized | Compound NOT metabolized | Compound NOT metabolized | Compound NOT metabolized | Compound NOT metabolized | Compound NOT metabolized | Compound NOT metabolized |

Continued, values first:

| Bacterial Biotransformation [1] | Bacterial Biotransformation [2] | Bacterial Biotransformation [3] | Bacterial Biotransformation [4] | Bacterial Biotransformation [5] | Bacterial Biotransformation [6] | Bacterial Biotransformation [7] | Bacterial Biotransformation [8] | Bacterial Biotransformation [9] | Bacterial Biotransformation [10] | Bacterial Biotransformation [11] | Bacterial Biotransformation [12] | Bacterial Biotransformation [13] | Bacterial Biotransformation [14] | Bacterial Biotransformation [15] | Bacterial Biotransformation [16] | Bacterial Biotransformation [17] | Bacterial Biotransformation [18] | Bacterial Biotransformation [19] | Bacterial Biotransformation [20] | Structure (SMILES) |
| --- | --- | --- | --- | --- | --- | --- | --- | --- | --- | --- | --- | --- | --- | --- | --- | --- | --- | --- | --- | --- |
| Compound metabolized | Compound metabolized | Compound metabolized | Compound metabolized | Compound NOT metabolized | Compound NOT metabolized | Compound metabolized | Compound NOT metabolized | Compound NOT metabolized | Compound NOT metabolized | Compound metabolized | Compound metabolized | Compound NOT metabolized | Compound metabolized | Compound NOT metabolized | Compound NOT metabolized | Compound NOT metabolized | Compound NOT metabolized | Compound metabolized | Compound metabolized | Cc1ccccc1C(OCCN(C)C)c1ccccc1.O=C(O)CC(O)(CC(=O)O)C(=O)O (stereo not given) [ORPHENADRINE CITRATE] |
| Compound metabolized | Compound metabolized | Compound NOT metabolized | Compound metabolized | Compound NOT metabolized | Compound metabolized | Compound NOT metabolized | Compound NOT metabolized | Compound NOT metabolized | Compound NOT metabolized | Compound metabolized | Compound NOT metabolized | Compound NOT metabolized | Compound NOT metabolized | Compound NOT metabolized | Compound metabolized | Compound NOT metabolized | Compound NOT metabolized | Compound NOT metabolized | Compound metabolized | CC(=O)O[C@H]1C(=O)[C@@]2(C)[C@H]([C@H](OC(=O)c3ccccc3)[C@]3(O)C[C@H](OC(=O)[C@H](O)[C@@H](NC(=O)c4ccccc4)c4ccccc4)C(C)=C1C3(C)C)[C@]1(OC(C)=O)CO[C@@H]1C[C@@H]2O [PACLITAXEL] |
| Compound NOT metabolized | Compound metabolized | Compound NOT metabolized | Compound metabolized | Compound NOT metabolized | Compound metabolized | Compound NOT metabolized | Compound metabolized | Compound metabolized | Compound metabolized | Compound metabolized | Compound metabolized | Compound metabolized | Compound metabolized | Compound NOT metabolized | Compound metabolized | Compound metabolized | Compound NOT metabolized | Compound metabolized | Compound metabolized | CC(C)(C)N.CCC[C@H](N[C@@H](C)C(=O)N1[C@H](C(=O)O)C[C@@H]2CCCC[C@@H]21)C(=O)OCC [PERINDOPRIL ERBUMINE] |
| Compound NOT metabolized | Compound NOT metabolized | Compound NOT metabolized | Compound NOT metabolized | Compound NOT metabolized | Compound NOT metabolized | Compound NOT metabolized | Compound NOT metabolized | Compound metabolized | Compound metabolized | Compound metabolized | Compound NOT metabolized | Compound NOT metabolized | Compound NOT metabolized | Compound NOT metabolized | Compound NOT metabolized | Compound metabolized | Compound NOT metabolized | Compound metabolized | Compound NOT metabolized | C=C[C@H]1CN2CC[C@H]1C[C@H]2[C@H](O)c1ccnc2ccc(OC)cc12.C=C[C@H]1CN2CC[C@H]1C[C@H]2[C@H](O)c1ccnc2ccc(OC)cc12.O.O.O=S(=O)(O)O [QUININE SULFATE] |
